Read-outs that look alike come from different tables or passages of the source.
System: blood eosinophils
Description: This was a Phase II, open-label, multicenter study in approximately 30 participants aged≥40 to ≤80 years of age with a diagnosis of COPD and a blood eosinophil count of ≥0.30×10^9/L at screening. Some patients with blood eosinophil counts of 0.25-0.299×10^9/L at screening also were included. Participants were treated with 150 mg dexpramipexole BID. […] Informed consent was obtained from participants before the initiation of any study-specific procedures. This study was conducted at approximately 30 sites in the US.
There were three phases to the study: • Screening Phase (Screening Visit through Baseline) Participants underwent screening to assess whether they satisfy the eligibility criteria. […] After the collection of all Baseline assessments, participants began investigational treatment (dexpramipexole 150 mg), BID for 16 weeks. The Week 16 Visit was the Primary Outcome Visit for the study. • Follow-up Phase (Conclusion of Week 16 assessments through Week 20) During this phase, participants had one final phone visit to collect final safety assessments following cessation of investigational product.
The primary endpoint of this study was geometric mean change in the blood AEC from Baseline to Week 16.
Blood eosinophil counts were obtained at every onsite study visit. Samples were collected between 6 AM and 12 noon to minimize diurnal variation.

[1] = Subject 10001-001-0001 (<50% AEC reduction at Week 16), Week 4
[2] = Subject 10001-001-0001 (<50% AEC reduction at Week 16), Week 8
[3] = Subject 10001-001-0001 (<50% AEC reduction at Week 16), Week 12
[4] = Subject 10001-001-0001 (<50% AEC reduction at Week 16), Week 16
[5] = Subject 10001-001-0002 (>=50% AEC reduction at Week 16), Week 4
[6] = Subject 10001-008-0002 (<50% AEC reduction at Week 16), Week 4
[7] = Subject 10001-008-0002 (<50% AEC reduction at Week 16), Week 8
[8] = Subject 10001-008-0002 (<50% AEC reduction at Week 16), Week 12
[9] = Subject 10001-008-0002 (<50% AEC reduction at Week 16), Week 16
[10] = Subject 10001-010-0005 (<50% AEC reduction at Week 16), Week 4
[11] = Subject 10001-010-0005 (<50% AEC reduction at Week 16), Week 8
[12] = Subject 10001-010-0005 (<50% AEC reduction at Week 16), Week 12
[13] = Subject 10001-010-0005 (<50% AEC reduction at Week 16), Week 16
[14] = Subject 10001-022-0001 (>=50% AEC reduction at Week 16), Week 4
[15] = Subject 10001-022-0001 (>=50% AEC reduction at Week 16), Week 8
[16] = Subject 10001-022-0001 (>=50% AEC reduction at Week 16), Week 12
[17] = Subject 10001-022-0001 (>=50% AEC reduction at Week 16), Week 16
[18] = Subject 10001-022-0006 (<50% AEC reduction at Week 16), Week 4
[19] = Subject 10001-022-0006 (<50% AEC reduction at Week 16), Week 12
[20] = Subject 10001-022-0006 (<50% AEC reduction at Week 16), Week 16
[21] = Subject 10001-024-0002 (>=50% AEC reduction at Week 16), Week 4
[22] = Subject 10001-024-0002 (>=50% AEC reduction at Week 16), Week 8
[23] = Subject 10001-024-0002 (>=50% AEC reduction at Week 16), Week 12
[24] = Subject 10001-024-0002 (>=50% AEC reduction at Week 16), Week 16

## CCCN[C@@H]1CCc2nc(N)sc2C1 [Dexpramipexole, (6R)-2-amino-4,5,6,7-tetrahydro-6-(propylamino)benzothiazole]
[1]
  AEC Ratio to Baseline: 0.70
  AEC Result: 290 cells/uL
[2]
  AEC Ratio to Baseline: 0.56
  AEC Result: 235 cells/uL
[3]
  AEC Ratio to Baseline: 0.54
  AEC Result: 224 cells/uL
[4]
  AEC Ratio to Baseline: 0.62
  AEC Result: 260 cells/uL
[5]
  AEC Ratio to Baseline: 0.80
  AEC Result: 298 cells/uL
Subject 10001-001-0002 (>=50% AEC reduction at Week 16), Week 8
  AEC Result: 0 cells/uL
Subject 10001-001-0002 (>=50% AEC reduction at Week 16), Week 8, zero value replaced with 5 cells
  AEC Ratio to Baseline: 0.01(a)
Subject 10001-001-0002 (>=50% AEC reduction at Week 16), Week 12
  AEC Result: 0 cells/uL
Subject 10001-001-0002 (>=50% AEC reduction at Week 16), Week 12, zero value replaced with 5 cells
  AEC Ratio to Baseline: 0.01(a)
Subject 10001-001-0002 (>=50% AEC reduction at Week 16), Week 16
  AEC Result: 0 cells/uL
Subject 10001-001-0002 (>=50% AEC reduction at Week 16), Week 16, zero value replaced with 5 cells
  AEC Ratio to Baseline: 0.01(a)
[6]
  AEC Ratio to Baseline: 0.70
  AEC Result: 218 cells/uL
[7]
  AEC Ratio to Baseline: 1.08
  AEC Result: 336 cells/uL
[8]
  AEC Ratio to Baseline: 1.90
  AEC Result: 589 cells/uL
[9]
  AEC Ratio to Baseline: 1.24
  AEC Result: 384 cells/uL
[10]
  AEC Ratio to Baseline: 0.94
  AEC Result: 388 cells/uL
[11]
  AEC Ratio to Baseline: 0.96
  AEC Result: 396 cells/uL
[12]
  AEC Ratio to Baseline: 0.56
  AEC Result: 231 cells/uL
[13]
  AEC Ratio to Baseline: 0.64
  AEC Result: 266 cells/uL
[14]
  AEC Ratio to Baseline: 1.51
  AEC Result: 724 cells/uL
[15]
  AEC Ratio to Baseline: 0.19
  AEC Result: 90 cells/uL
[16]
  AEC Ratio to Baseline: 0.01
  AEC Result: 6 cells/uL
[17]
  AEC Ratio to Baseline: 0.01
  AEC Result: 6 cells/uL
[18]
  AEC Ratio to Baseline: 1.23
  AEC Result: 676 cells/uL
[19]
  AEC Ratio to Baseline: 1.07
  AEC Result: 589 cells/uL
[20]
  AEC Ratio to Baseline: 0.62
  AEC Result: 342 cells/uL
[21]
  AEC Ratio to Baseline: 0.77
  AEC Result: 192 cells/uL
[22]
  AEC Ratio to Baseline: 0.77
  AEC Result: 192 cells/uL
[23]
  AEC Ratio to Baseline: 0.04
  AEC Result: 9 cells/uL
[24]
  AEC Ratio to Baseline: 0.39
  AEC Result: 98 cells/uL
Week 4
  AEC Observed, Geometric Mean ± GSE: 353.3 ± 1.22 cells/uL
  AEC Observed, Max: 724 cells/uL
  AEC Observed, Median: 298.0 cells/uL
  AEC Observed, Min: 192 cells/uL
  AEC Observed, Q1: 218 cells/uL
  AEC Observed, Q3: 676 cells/uL
  AEC Ratio to baseline, Geometric Mean ± GSE: 0.911 ± 1.1189
  AEC Ratio to baseline, Max: 1.51
  AEC Ratio to baseline, Median: 0.799
  AEC Ratio to baseline, Min: 0.70
  AEC Ratio to baseline, Q1: 0.70
  AEC Ratio to baseline, Q3: 1.23
Week 8
  AEC Observed, Geometric Mean ± GSE: 118.0 ± 1.95 cells/uL
  AEC Observed, Max: 396 cells/uL
  AEC Observed, Median: 212.4 cells/uL
  AEC Observed, Min: 5 cells/uL
  AEC Observed, Q1: 90 cells/uL
  AEC Observed, Q3: 336 cells/uL
  AEC Ratio to baseline, Geometric Mean ± GSE: 0.323 ± 1.9860
  AEC Ratio to baseline, Max: 1.08
  AEC Ratio to baseline, Median: 0.658
  AEC Ratio to baseline, Min: 0.01
  AEC Ratio to baseline, Q1: 0.19
  AEC Ratio to baseline, Q3: 0.96
Week 12
  AEC Observed, Geometric Mean ± GSE: 64.9 ± 2.30 cells/uL
  AEC Observed, Max: 589 cells/uL
  AEC Observed, Median: 224.0 cells/uL
  AEC Observed, Min: 5 cells/uL
  AEC Observed, Q1: 6 cells/uL
  AEC Observed, Q3: 589 cells/uL
  AEC Ratio to baseline, Geometric Mean ± GSE: 0.167 ± 2.2497
  AEC Ratio to baseline, Max: 1.90
  AEC Ratio to baseline, Median: 0.538
  AEC Ratio to baseline, Min: 0.01
  AEC Ratio to baseline, Q1: 0.01
  AEC Ratio to baseline, Q3: 1.07
Week 16
  AEC Observed, Geometric Mean ± GSE: 82.8 ± 2.06 cells/uL
  AEC Observed, Max: 384 cells/uL
  AEC Observed, Median: 260.0 cells/uL
  AEC Observed, Min: 5 cells/uL
  AEC Observed, Q1: 6 cells/uL
  AEC Observed, Q3: 342 cells/uL
  AEC Ratio to baseline, Geometric Mean ± GSE: 0.213 ± 2.0849
  AEC Ratio to baseline, Max: 1.24
  AEC Ratio to baseline, Median: 0.620
  AEC Ratio to baseline, Min: 0.01
  AEC Ratio to baseline, Q1: 0.01
  AEC Ratio to baseline, Q3: 0.64
  AEC, average, percent of the baseline value: 21.3 % of the baseline value
  subjects classified as AECR≥0.5 (reduction in AEC of ≥50% from baseline at week 16): 3 of the 7 subjects
